Laboratory results reported in article PMC10081362 (Research Square, 2023).
pIC50: −log10 of the molar value.

Legend:
OXTR [1] = target: T1, OXTR (Homo sapiens, UniProt P30559); assay: Calcium flux fluorescence assay (FLUO-8) in CHO-K1 cells stably expressing OXTR; assay type: cell-based
T1 construct: host or cells: CHO-K1, stably transfected
T1 sequence (P30559 1-389): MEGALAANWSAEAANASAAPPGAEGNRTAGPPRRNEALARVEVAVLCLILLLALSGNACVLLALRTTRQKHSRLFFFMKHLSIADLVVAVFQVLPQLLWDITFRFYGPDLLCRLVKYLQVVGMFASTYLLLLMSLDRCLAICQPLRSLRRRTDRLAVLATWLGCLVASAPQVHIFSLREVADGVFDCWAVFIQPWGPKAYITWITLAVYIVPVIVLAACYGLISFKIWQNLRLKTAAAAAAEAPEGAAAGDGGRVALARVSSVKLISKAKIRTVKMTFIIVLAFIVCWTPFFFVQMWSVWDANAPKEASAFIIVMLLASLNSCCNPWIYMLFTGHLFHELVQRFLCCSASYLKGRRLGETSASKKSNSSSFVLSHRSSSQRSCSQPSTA
Experimental: Stably transfected CHO-K1 cell lines overexpressing OXTR or V1a were obtained from Dr. Bryan Roth via the National Institute of Mental Health (NIMH) Psychoactive Drug Screening Program. The cells were cultured and maintained in Hams F12 medium (Gibco, Waltham, MA) supplemented with 400 μg/ml G418 (Gibco, Waltham, MA), 10% heat-inactivated FBS (Gibco, Waltham, MA), 15 mM HEPES (Gibco, Waltham, MA), 100 units ml^−1 of penicillin, 100 μg ml^−1 of streptomycin. The cells were grown in an atmosphere of 37°C and 8% CO2 and were passaged following trypsinization with Trypsin-LE (Gibco, Waltham, MA). CHO-K1 cells overexpressing OXTR were seeded overnight at 50,000 cells/100 μL/well in a black wall/clear bottom 96-well plate pretreated with poly-lysine (Gibco, Waltham, MA). […] The calcium flux assay was carried out on a FlexStation 3 Microplate Reader (Molecular Devices, San Jose, CA).

[2] = test system: OXTR+ neurons in the auditory cortex; assay type: cell-based, mouse
Experimental: In vitro recordings were performed in acute slices of the auditory cortex prepared from male and female 2–5 month old OXTRcre∷Ai9 mice. Mice were deeply anesthetized with 5% isoflurane and perfused transcardially with ice-cold dissection buffer containing (in mM): 87 NaCl, 75 sucrose, 2.5 KCl, 1.25 NaH2PO4, 0.5 CaCl2, 7 MgCl2, 25 NaHCO3, 1.3 ascorbic acid, and 10 D-glucose, bubbled with 95%/5% O2/CO2 (pH 7.4). Following perfusion and decapitation, brains were removed and placed in the cold buffer solution, and slices (250–300 μm thick) were prepared with a vibratome (Leica P-1000). Slices were placed in warm artificial cerebrospinal fluid (ACSF, in mM: 124 NaCl, 2.5 KCl, 1.5 MgSO4, 1.25 NaH2PO4, 2.5 CaCl2, and 26 NaHCO3) (33–35 °C) for <30 minutes, then cooled to room temperature (22–24 °C) for at least 30 minutes before use. Slices were transferred to the recording chamber and superfused (2.5–3 ml min^−1) with oxygenated ACSF at 33 °C. Whole-cell current-clamp recordings were made from layer 2/3 pyramidal cells with a Multiclamp 200B or 700B amplifier (Molecular Devices, San Diego). Cortical regions and layers were identified using IR video microscopy (Olympus, Japan), and OXTR-positive neurons were identified based on expression of tdTomato, visualized with an Olympus 40 × water- immersion objective with TRITC filter. […]

[3] = test system: mammary tissue from lactating GCaMP6f∷K5CreERT2 mice; assay: Ex vivo three-dimensional time-lapse imaging of lactating mammary tissue; assay type: cell-based, mouse; conditions: 85 nM oxytocin in bath
Experimental: Mammary glands were harvested from lactating GCaMP6f;K5CreERT2 mice diced into 3- to 4- mm^3 pieces and loaded with CellTracker Red (1.5 μM, ThermoFisher C34552, ThermoFisher, Waltham, MA) for at least 30 minutes in DMEM/F12 containing 10% FCS. Under these conditions, CellTracker preferentially labels luminal cells. […] Samples were imaged on a Leica TCS SP8 inverted microscope (Leica, Germany) with 20× 0.75NA HC PL APO CS2 objective. For uncaging, a region of interest (ROI) was targeted with a 405 nm laser at 100% laser power for 3s each trial. […] Protocol for image processing and analysis was previously reported in (Stevenson et al., 2020)[48].

[4] = UV-Vis absorption spectra upon 365 nm irradiation; assay type: physicochemical; conditions: 365 nm LED, 3 mW; 20 μM, 1% DMSO/PBS; absorption spectrum unchanged
Experimental: All measurements were performed in the dark or under red light. Samples were stored at −20 °C. UV-Vis spectroscopy was performed using a Cary 60 UV-Vis Spectrophotometer equipped with a PCB 1500 High-Performance Peltier thermostat (Agilent Technologies, Santa Clara, CA). Samples were measured using ultra-micro cuvettes with a 10 mm light path (BrandTech, Essex, CT). Irradiation was performed using an Optoscan Monochromator equipped with an Optosource High-Intensity Arc Lamp (Cairn Research, Kent, UK) set to 15 nm full width at half maximum and installed with a 75 W UXL-S50A xenon arc lamp (USHIO, Tokyo, JP). The light source was set to 365 nm, and the power output was measured at the sample position using a PM100D compact power and energy meter console and S120VC Si photodiode sensor (Thorlabs, Newton, NJ). A constant 3 mW power output at 365 nm was maintained throughout the experiments. The monochromator was controlled using a custom MATLAB program, and data were analyzed and plotted using Prism 8 (GraphPad, San Diego, CA).
For measuring the UV-visible absorption spectra, we prepared a […] DMSO stock solution of each respective compound, diluted to 20 μM (1% DMSO in PBS). A sample (1 mL) of the solution (20 μM) was transferred to a cuvette and measured by under ambient conditions (24 °C). […]

OXTR [5] = target: T1, OXTR; assay: Radioligand competitive binding assay (NIMH PDSP)
Experimental: Radioligand binding assays were carried out by the (NIMH) Psychoactive Drug Screening Program[61]. The detailed experimental protocols for the radioligand assay are available on the NIMH PDSP website at http://pdsp.med.unc.edu/UNC-CH%20Protocol%20Book.pdf. […] Binding data were analyzed and plotted using Prism 8 (GraphPad, San Diego, CA).

Structure (SMILES) | activation of OXTR+ cells in presence of OXTR antagonist OTA (OXTR [1]; 1 μM agonist with 10 μM OTA, after photolysis with 365 nm LED, Fig. 2e) | fluorescence (calcium flux) (OXTR [1]; oxytocin 1 μM, Fig. 2d, normalized to maximal response produced by oxytocin, mean ± SEM, n=5 wells) | peak depolarization of OXTR+ neurons ([2]; 1 μM oxytocin wash-on, or cOT1 wash-in and 365 nm light pulsed at 20 Hz, Fig. 4k) | calcium and contraction response to whole-tissue wash on [3] | duration of stability towards 365 nm irradiation [4] | toxic effects on neurons in slices [2] | pIC50 (OXTR [5])
CC[C@H](C)[C@@H]1NC(=O)[C@H](Cc2ccc(O)cc2)NC(=O)[C@@H](N)CSSC[C@@H](C(=O)N2CCC[C@H]2C(=O)N[C@@H](CC(C)C)C(=O)NCC(N)=O)NC(=O)[C@H](CC(N)=O)NC(=O)[C@H](CCC(N)=O)NC1=O [oxytocin] | failed to activate | 142.4±1.8 | significant membrane depolarization | increase in intracellular calcium, followed by cell and alveolar contraction across all cells | at least 30 minutes |  | 
CC[C@H](C)[C@@H]1NC(=O)[C@H](Cc2ccc(OCc3ccccc3[N+](=O)[O-])cc2)NC(=O)[C@@H](N)CSSC[C@@H](C(=O)N2CCC[C@H]2C(=O)N[C@@H](CC(C)C)C(=O)NCC(N)=O)NC(=O)[C@H](CC(N)=O)NC(=O)[C@H](CCC(N)=O)NC1=O [cOT1] |  |  |  |  |  | without apparent toxic effects | 5.70
